Source: patent US20110136839A1, “COMBINATION OF TWO ANALGESIC CHEMICALS” (priority 2009, published 2011)
“Also recorded” adds a separate entry of the source.

What was measured:
[1] = test system: carrageenan-evoked hyperalgesia; experiment: Carrageenan model of inflammation, thermal hyperalgesia (paw withdrawal latency); format: in vivo; settings: rat; for reversal of the hypoalgesia by naloxone (opioid receptor antagonist): drug i.pl. at 1 hour, naloxone chloride or naloxone methiodide s.c. at 24 hours after carrageenan; for effect on carrageenan-evoked thermal hyperalgesia (paw withdrawal latency): intraplantar (local) injection in the inflamed paw 1 hour after carrageenan
Description: Rats received a subcutaneous injection of carrageenan (2% in saline, 100 μl) in the right hindpaw (intraplantar injection). Drug or vehicle were administered intraplantarly (i.pl., 50 μl) 1 hour after carrageenan injection and behavioral testing was performed at various time points. Nociceptive threshold responding to heat was determined as described before (Williams et al., 1990; Wisden et al., 1990: Jiang et al., 2006). Briefly, rat was placed in a device that held the body without restraining the head and legs. Noxious heat stimulation was carried out by immersing the hindpaw up to the ankle joint into a slowly stirred water bath at 47.5° C. while holding the animal with the device. […] Paw withdrawal latency for any test time point was measured twice at 3-min intervals and the mean values were calculated. Baseline latency was measured 10 min before drug or vehicle administration.
Effects of ketanserin on carrageenan-evoked hyperalgesia are illustrated in FIG. 1. Paw withdrawal latencies in seconds were measured in plantar test at the various time points. Data were normalized as percentage of pretreatment baseline (100%) and expressed as the mean ±SEM (standard error of mean).
Paw withdrawal latencies in seconds were determined in plantar test at the various time points. Data were normalized as percentage of pretreatment baseline (100%) and expressed as the mean ±SEM. Carrageenan and ketanserin (20 μg) were given i.pl. into unilateral hindpaw at 0 and 1 hour, respectively.
Paw withdrawal latencies in seconds were examined at the various time points. Data were normalized as percentage of pretreatment baseline (100%) and expressed as the mean ±SEM.
Carrageenan and […] (30 μg) were given i.pl. into unilateral hindpaw at 0 and 1 hour, respectively. Then naloxone chloride (5 mg/ml/kg) or naloxone methiodide (10 mg/ml/kg) or saline (1 ml/kg) was injected s.c. (subcutaneous injection) at 24hours after carrageenan. Paw withdrawal latencies in seconds were measured at the various time points.
Carrageenan (2%, 100 μl) was administered i.pl. at 0 hour and saline (50 μl, i.pl.) or ketanserin (2 μg, i.pl.)+WAY100635 (3 μg, i.pl.) at 1 hour. The results are illustrated in FIG. 5. Paw withdrawal latencies in seconds were examined at the various time points.
Carrageenan model—See those described before.

neuropathic pain (SNL) = experiment: Neuropathic pain model (spinal nerve ligation), thermal threshold of the hindpaw; format: in vivo, rat
Description: PWL responding to heat stimulus ipsilaterally was measured.
Paw withdrawal latency was measured.

[2] = Animal study of blood pressure and heart rate; format: in vivo; settings: subcutaneous injection at 0.5 mg/kg
[3] = test system: carrageenan-evoked hyperalgesia; experiment: Carrageenan model of inflammation, thermal hyperalgesia (paw withdrawal latency); format: in vivo; settings: rat; for effect on thermal hyperalgesia in carrageenan model (paw withdrawal latency): subcutaneous (systemic) injection 1 hour after carrageenan; for effect on inflammatory hyperalgesia at higher dose (FIG. 7D): subcutaneous injection at 1 hour, doses higher than those in FIG. 7C

Compound: COc1ccccc1N1CCN(CCN(C(=O)C2CCCCC2)c2ccccn2)CC1 [WAY100635]
- reversal of the hypoalgesia by naloxone (opioid receptor antagonist) [1]: mediated by opioid analgesia mechanism
- effect on carrageenan-evoked thermal hyperalgesia (paw withdrawal latency) [1]: dose-dependently produces hypoalgesia

Compound: O=C(c1ccc(F)cc1)C1CCN(CCn2c(=O)[nH]c3ccccc3c2=O)CC1 [ketanserin]
- reversal of the hypoalgesia by naloxone (opioid receptor antagonist) [1]: abolished by i.p. naloxone
- reversal of the hypoalgesia by naloxone (opioid receptor antagonist) ([1]; listed as Ketanserin): mediated by opioid analgesia mechanism
- effect on carrageenan-evoked thermal hyperalgesia (paw withdrawal latency) [1]: dose-dependently produces hypoalgesia; also recorded: prolonging in paw withdrawal latency
- tolerance (neuropathic pain (SNL); rat neuropathic pain model, thermal, s.c. injection): without tolerance
- thermal nociceptive threshold in Chung's model of neuropathic pain (paw withdrawal latency) (neuropathic pain (SNL); rat, s.c. starting at day 4 after spinal nerve ligation): dose-dependently inhibits
- blood pressure [2]: does not alter
- heart rate [2]: does not alter
- effect on thermal hyperalgesia in carrageenan model (paw withdrawal latency) [3]: produces significant inhibition on the nociceptive threshold
- effect on inflammatory hyperalgesia at higher dose (FIG. 7D) [3]: exerted stronger effect

Compound: COc1cc2nc(N3CCN(C(=O)c4ccco4)CC3)nc(N)c2cc1OC [prazosin]
- effect on carrageenan-evoked thermal hyperalgesia (paw withdrawal latency) [1]: failed to alter the carrageenan-evoked response

Compound: CC(C)NCC(O)COc1cccc2ccccc12 (stereo not drawn) [propranolol]
- reversal of the hypoalgesia by naloxone (opioid receptor antagonist) [1]: abolished by i.p. naloxone
- effect on carrageenan-evoked thermal hyperalgesia (paw withdrawal latency) [1]: prolonging in paw withdrawal latency
- blood pressure [2]: does not alter
- heart rate [2]: does not alter
- effect on thermal hyperalgesia in carrageenan model (paw withdrawal latency) [3]: produces significant inhibition on the nociceptive threshold
- effect on inflammatory hyperalgesia at higher dose (FIG. 7D) [3]: exerted stronger effect
